Assay results reported in ChEMBL document CHEMBL1142434, “Novel prostaglandin D synthase inhibitors generated by fragment-based drug design” (J Med Chem, 2008).

Columns and labels:
[1] = target: Hematopoietic prostaglandin D synthase (Homo sapiens, UniProt O60760); assay: Inhibition of glutathione-S-transferase activity of prostaglandin D2 synthase
[2] = system: LAD2; assay: Inhibition of PMA/ionomycin-induced PDG2 synthesis in human LAD2 cells; format: functional, cell-based
[3] = Toxicity against PMA/ionomycin treated human LAD2 cells assessed as cellular viability; format: cell-based

Chain of Hematopoietic prostaglandin D synthase (O60760 whole entry): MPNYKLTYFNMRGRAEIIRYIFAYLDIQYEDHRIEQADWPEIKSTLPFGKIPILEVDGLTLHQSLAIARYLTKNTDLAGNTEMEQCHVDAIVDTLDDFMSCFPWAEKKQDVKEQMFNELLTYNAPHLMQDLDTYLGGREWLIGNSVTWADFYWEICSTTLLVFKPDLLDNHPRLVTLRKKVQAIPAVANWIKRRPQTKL

Row | IC50 [1] [µM] | EC50 [2] [µM] | SMILES | Activity [3]
1 | 3.8 | – | O=C1c2ccccc2-c2nnc(-c3ccc(O)cc3)cc21 | –
2 | 0.075 | – | Cc1ccc(NC(=O)c2cc(-c3ccccc3)ns2)cc1NC(=O)c1cccc(CN2CCN(C)CC2)c1 | –
3 | 17.4 | – | Oc1c(Cl)cc(Cl)cc1-c1cc[nH]n1 | –
4 | 12.4 | – | COc1ccc(C(=O)CBr)c2ccccc12 | –
5 | 1.5 | – | COC(=O)c1ccc(-c2nnc(-c3ccncc3)[nH]2)nc1 | –
6 | 26.4 | – | Cc1cc(C)c(-c2cc[nH]n2)[nH]1 | –
7 | 34.7 | – | Cc1ccc(-c2cc[nH]n2)cn1 | –
8 | 45 | – | CCOC(=O)c1cc(O)c(-c2ccccc2)nn1 | –
9 | – | 1.7 | c1ccc(-c2ncc(-c3cc[nH]n3)s2)cc1 | Non-toxic
10 | 0.994 | – | COc1ccccc1-c1csc(Nc2ccc(C(=O)O)cc2)n1 | –
11 | 3.8 | – | Cc1ccc(-c2cc3c(nn2)-c2ccccc2C3=O)cc1 | –
12 | 33 | – | COc1ccc(-c2cnn(-c3ccccc3)c2N)cc1OC | –
